Assay results: patent US20230123334A1, “AMINO LIPID COMPOUND, PREPARATION METHOD THEREFOR, AND APPLICATION THEREOF” (SHENZHEN SHENXIN BIOTECHNOLOGY CO., LTD., priority 2020, published 2023)

Tested on: HEK293 cells
Experiment: Preliminary screening as DNA vectors, GFP transfection of HEK293 cells
Assay type: cell-based
Settings: amino lipid/DOPE liposome with 75 ng plasmid DNA (psin-EGFP-IRES-Puro); number of GFP-expressing cells divided by total nuclei (Hoechst)
In short: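 Lipid + DOPE liposomes (NaOAc, pH 5.6) complexed w/ 75 ng psin-EGFP-IRES-Puro, 30 min RT; added to 3-5×10^4 HEK293/well, 37° C. Hoechst 0.2 μg/mL at 20-24 h, imaged after further 20-24 h. Efficiency = GFP+ cells / total nuclei.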

With `CCCCCCCCCCCNc1nc(NCCCN(C)C)nc(SCCCCCCCC)n1` [S8N11 D6] the “Absolute DNA transfection efficiency in HEK293 cells” value (from here on “Absolute DNA transfection efficiency”) was 99.4%.

In the case of `CCCCCCCCCCCCSc1nc(NCCCN2CCN(C)CC2)nc(SCCCCCCC)n1` [S7S12 D9], the “Absolute DNA transfection efficiency” value is reported as 4.8%.

`CCCCCCCCCCCCN(CCCCCCCCCCCC)c1nc(NCCN2CCN(C)CC2)nc(SCCCCCCCCCCC)n1` [S11^2N12 D5] was tested, and the “Absolute DNA transfection efficiency” value was 0.1%.

In the case of `CCCCCCCCCCCCCCSc1nc(NCCCCCCCCCCC)nc(NCCN2CCCCC2)n1` [S14N11 D4], the “Absolute DNA transfection efficiency” value is reported as 3.1%.

`CCCCCCCNc1nc(NCCCN(C)C)nc(SCCCCCC)n1` [S6N7 D6] was tested, and the “Absolute DNA transfection efficiency” value was 0.4%.

For `CCCCCCCCCCCCCCCNc1nc(NCCCN(C)C)nc(SCCCCCCCC)n1` [S8N15 D6], the “Absolute DNA transfection efficiency” value was 23.7%.

In the case of `CCCCCCCCSc1nc(NCCCN(C)C)nc(SCCCCCCC)n1` [S7S8 D6], the “Absolute DNA transfection efficiency” value is reported as 3.6%.

With `CCCCCCCCCCCNc1nc(NCCN2CCCCC2)nc(SCCCCCCCCC)n1` [S9N11 D4] the “Absolute DNA transfection efficiency” value was 8.3%.

In the case of `CCCCCCCCCCCCCCCCCCNc1nc(NCCCN2CCOCC2)nc(SCCCCCCCCCCCCCCC)n1` [S15N18 D8], the “Absolute DNA transfection efficiency” value is reported as 0.3%.

In the case of `CCCCCCCCCCCCSc1nc(NCCN(CC)CC)nc(SCCCCCCC)n1` [S7S12 D7], the “Absolute DNA transfection efficiency” value is reported as 7.1%.

`CCCCCCCCCCCCCCCSc1nc(NCCCCCCCC)nc(NCC2CCN(C)CC2)n1` [S15N8 D10] was tested, and the “Absolute DNA transfection efficiency” value was 19.4%.

In the case of `CCCCCCCCCCCCCCCCSc1nc(NCCCCCCCCC)nc(NCCN2CCOCC2)n1` [S16N9 D2], the “Absolute DNA transfection efficiency” value is reported as 7.4%.

`CCCCCCCCCNc1nc(NCCCN(C)C)nc(SCCCCCC)n1` [S6N9 D6] was tested, and the “Absolute DNA transfection efficiency” value was 1.5%.

For `CCCCCCCCCCCCCCCCCCSc1nc(NCCCCCCCCCCC)nc(NCC2CCN(C)CC2)n1` [S18N11 D10], the “Absolute DNA transfection efficiency” value was 2.7%.

`CCCCCCCCCCCCSc1nc(NCCCCCCC)nc(NCCCN2CCOCC2)n1` [S12N7 D8] was tested, and the “Absolute DNA transfection efficiency” value was 0.3%.

`CCCCCCCCCCCNc1nc(NCCCN2CCN(C)CC2)nc(SCCCCCCC)n1` [S7N11 D9] was tested, and the “Absolute DNA transfection efficiency” value was 43.9%.

In the case of `CCCCCCCCCCCCCCSc1nc(NCCCCCCCCCCC)nc(NCCN2CCCC2)n1` [S14N11 D3], the “Absolute DNA transfection efficiency” value is reported as 25.2%.

In the case of `CCCCCCCCCCSc1nc(NCCN(C)C)nc(SCCCCCC)n1` [S6S10 D1], the “Absolute DNA transfection efficiency” value is reported as 3.2%.

For `CCCCCCCCCCCCCCCCSc1nc(NCCCCCCC)nc(NCCN(CC)CC)n1` [S16N7 D7], the “Absolute DNA transfection efficiency” value was 7.3%.

For `CCCCCCCCCCCCCCCCCCNc1nc(NCC2CCN(C)CC2)nc(SCCCCCCCCCCC)n1` [S11N18 D10], the “Absolute DNA transfection efficiency” value was 5.7%.

With `CCCCCCCCSc1nc(NCCCCCC)nc(NCCN2CCOCC2)n1` [S8N6 D2] the “Absolute DNA transfection efficiency” value was 0.2%.

`CCCCCCCCCCCCNc1nc(NCCN2CCN(C)CC2)nc(SCCCCCC)n1` [S6N12 D5] was tested, and the “Absolute DNA transfection efficiency” value was 25.9%.

`CCCCCCCCCCCCN(CCCCCCCCCCCC)c1nc(NCCN2CCCCC2)nc(SCCCCCCCCCC)n1` [S10^2N12 D4] was tested, and the “Absolute DNA transfection efficiency” value was 0.1%.

For `CCCCCCCCSc1nc(NCCCCCCC)nc(NCCCN2CCN(C)CC2)n1` [S8N7 D9], the “Absolute DNA transfection efficiency” value was 3.6%.

`CCCCCCCCCCCSc1nc(NCCCCCCC)nc(NCC2CCN(C)CC2)n1` [S11N7 D10] was tested, and the “Absolute DNA transfection efficiency” value was 28.5%.

`CCCCCCCCCCCCN(CCCCCCCCCCCC)c1nc(NCCCN2CCN(C)CC2)nc(SCCCCCCCCC)n1` [S9^2N12 D9] was tested, and the “Absolute DNA transfection efficiency” value was 0.6%.

In the case of `CCCCCCCCCCCCNc1nc(NCCN2CCCC2)nc(SCCCCCCCCCCCC)n1` [S12N12 D3], the “Absolute DNA transfection efficiency” value is reported as 31.4%.

For `CCCCCCCCCCCCCCCCCCSc1nc(NCCCCCCCCCCCC)nc(NCC2CCN(C)CC2)n1` [S18N12 D10], the “Absolute DNA transfection efficiency” value was 5.3%.

In the case of `CCCCCCCCCCCCCCCCNc1nc(NCCN2CCCC2)nc(SCCCCCCCCCC)n1` [S10N16 D3], the “Absolute DNA transfection efficiency” value is reported as 8.8%.

With `CCCCCCCCCCCNc1nc(NCCN2CCCC2)nc(SCCCCCC)n1` [S6N11 D3] the “Absolute DNA transfection efficiency” value was 2.8%.

For `CCCCCCCCCCCCCCCNc1nc(NCCN2CCCC2)nc(SCCCCCCCCC)n1` [S9N15 D3], the “Absolute DNA transfection efficiency” value was 22.7%.

With `CCCCCCCCCCCCSc1nc(NCCCCCC)nc(NCC2CCN(C)CC2)n1` [S12N6 D10] the “Absolute DNA transfection efficiency” value was 0.1%.

`CCCCCCCCCCCCCCCSc1nc(NCCCCCCCCCCC)nc(NCCCN2CCN(C)CC2)n1` [S15N11 D9] was tested, and the “Absolute DNA transfection efficiency” value was 11.9%.

`CCCCCCCCCCCCCCCCSc1nc(NCCCCCCCCCCCC)nc(NCCN(CC)CC)n1` [S16N12 D7] was tested, and the “Absolute DNA transfection efficiency” value was 0.7%.

With `CCCCCCCCCCCCCCCCNc1nc(NCCCN2CCN(C)CC2)nc(SCCCCCCCCCCCCCC)n1` [S14N16 D9] the “Absolute DNA transfection efficiency” value was 0.9%.

With `CCCCCCCCCCCCCCCCNc1nc(NCCN2CCCCC2)nc(SCCCCCCCCCCCCCCC)n1` [S15N16 D4] the “Absolute DNA transfection efficiency” value was 0.4%.

`CCCCCCCCCCCCCCSc1nc(NCCCCCCCCCCC)nc(NCCN2CCN(C)CC2)n1` [S14N11 D5] was tested, and the “Absolute DNA transfection efficiency” value was 13.3%.

For `CCCCCCCCCCCCCCSc1nc(NCCCCCCCC)nc(NCC2CCN(C)CC2)n1` [S14N8 D10], the “Absolute DNA transfection efficiency” value was 26.2%.

With `CCCCCCCCCCSc1nc(NCCN2CCN(C)CC2)nc(SCCCCCCC)n1` [S7S10 D5] the “Absolute DNA transfection efficiency” value was 10.6%.

With `CCCCCCCCCCCCCCCNc1nc(NCCN2CCN(C)CC2)nc(SCCCCCCC)n1` [S7N15 D5] the “Absolute DNA transfection efficiency” value was 20.4%.

With `CCCCCCCCCCCCCCCCCCSc1nc(NCCCCCCCCCCCCCCCC)nc(NCCN(CC)CC)n1` [S18N16 D7] the “Absolute DNA transfection efficiency” value was 0.0%.

In the case of `CCCCCCCCNc1nc(NCCCN2CCN(C)CC2)nc(SCCCCCCCC)n1` [S8N8 D9], the “Absolute DNA transfection efficiency” value is reported as 7.4%.

With `CCCCCCCNc1nc(NCCCN2CCOCC2)nc(SCCCCCC)n1` [S6N7 D8] the “Absolute DNA transfection efficiency” value was 0.0%.

`CCCCCCCCCCCCCCCCCCSc1nc(NCCN2CCCCC2)nc(N(CCCCCCCCCCCC)CCCCCCCCCCCC)n1` [S18^2N12 D4] was tested, and the “Absolute DNA transfection efficiency” value was 0.0%.

With `CCCCCCCCNc1nc(NCCN(CC)CC)nc(SCCCCCCCC)n1` [S8N8 D7] the “Absolute DNA transfection efficiency” value was 5.2%.

`CCCCCCCCCCCCN(CCCCCCCCCCCC)c1nc(NCCN2CCCCC2)nc(SCCCCCCCC)n1` [S8^2N12 D4] was tested, and the “Absolute DNA transfection efficiency” value was 0.0%.

With `CCCCCCCCCCCCNc1nc(NCC2CCN(C)CC2)nc(SCCCCCCCCCC)n1` [S10N12 D10] the “Absolute DNA transfection efficiency” value was 6.8%.

For `CCCCCCCCCCCSc1nc(NCCCCCC)nc(NCCCN2CCN(C)CC2)n1` [S11N6 D9], the “Absolute DNA transfection efficiency” value was 13.5%.

In the case of `CCCCCCCCCNc1nc(NCCCN2CCOCC2)nc(SCCCCCCC)n1` [S7N9 D8], the “Absolute DNA transfection efficiency” value is reported as 4.6%.

`CCCCCCCCCCCCN(CCCCCCCCCCCC)c1nc(NCCN2CCN(C)CC2)nc(SCCCCCCCC)n1` [S8^2N12 D5] was tested, and the “Absolute DNA transfection efficiency” value was 0.8%.

`CCCCCCCCCCCCCCCCCCNc1nc(NCCCN(C)C)nc(SCCCCCCCCCC)n1` [S10N18 D6] was tested, and the “Absolute DNA transfection efficiency” value was 7.8%.

In the case of `CCCCCCCCCCCNc1nc(NCCN(C)C)nc(SCCCCCC)n1` [S6N11 D1], the “Absolute DNA transfection efficiency” value is reported as 1.5%.

In the case of `CCCCCCCCCCCCCCCCSc1nc(NCCCCCCCCCCCCC)nc(NCCCN(C)C)n1` [S16N13 D6], the “Absolute DNA transfection efficiency” value is reported as 1.2%.

For `CCCCCCCCCCCNc1nc(NCCCN2CCN(C)CC2)nc(SCCCCCCCCCC)n1` [S10N11 D9], the “Absolute DNA transfection efficiency” value was 10.8%.

In the case of `CCCCCCCCCCCCCCSc1nc(NCCN2CCCCC2)nc(N(CCCCCCCCCCCC)CCCCCCCCCCCC)n1` [S14^2N12 D4], the “Absolute DNA transfection efficiency” value is reported as 0.0%.

`CCCCCCCCCCCCCCCCCCSc1nc(NCCCCCCCCCCCCCCCC)nc(NCCCN2CCOCC2)n1` [S18N16 D8] was tested, and the “Absolute DNA transfection efficiency” value was 0.0%.

`CCCCCCCCCCCSc1nc(NCCCCCCCC)nc(NCCN2CCN(C)CC2)n1` [S11N8 D5] was tested, and the “Absolute DNA transfection efficiency” value was 19.3%.

In the case of `CCCCCCCCCCCCCCSc1nc(NCCCCCCCCCCCCC)nc(NCCN2CCCC2)n1` [S14N13 D3], the “Absolute DNA transfection efficiency” value is reported as 9.1%.

With `CCCCCCCCCCCCCCCSc1nc(NCCCCCCCCC)nc(NCC2CCN(C)CC2)n1` [S15N9 D10] the “Absolute DNA transfection efficiency” value was 35.1%.

For `CCCCCCCCCCCCNc1nc(NCCN(C)C)nc(SCCCCCCCC)n1` [S8N12 D1], the “Absolute DNA transfection efficiency” value was 22.1%.

For `CCCCCCCCCCCSc1nc(NCCCCCCCCC)nc(NCCN2CCOCC2)n1` [S11N9 D2], the “Absolute DNA transfection efficiency” value was 13.6%.

In the case of `CCCCCCCCCCCCCCSc1nc(NCCCCCC)nc(NCCN2CCN(C)CC2)n1` [S14N6 D5], the “Absolute DNA transfection efficiency” value is reported as 21.7%.

`CCCCCCCCCCCSc1nc(NCCCCCCCCC)nc(NCCN(C)C)n1` [S11N9 D1] was tested, and the “Absolute DNA transfection efficiency” value was 12.1%.

In the case of `CCCCCCCCSc1nc(NCCN(CC)CC)nc(SCCCCCCCC)n1` [S8S8 D7], the “Absolute DNA transfection efficiency” value is reported as 10.1%.

For `CCCCCCCCCCCCCCCCCCNc1nc(NCCN2CCCC2)nc(SCCCCCCCCCCCCCC)n1` [S14N18 D3], the “Absolute DNA transfection efficiency” value was 1.7%.

For `CCCCCCCCCCCCN(CCCCCCCCCCCC)c1nc(NCCN(CC)CC)nc(SCCCCCCCCCC)n1` [S10^2N12 D7], the “Absolute DNA transfection efficiency” value was 0.7%.

For `CCCCCCCCCCCCCNc1nc(NCCN2CCCCC2)nc(SCCCCCC)n1` [S6N13 D4], the “Absolute DNA transfection efficiency” value was 2.1%.

With `CCCCCCCCCCCCN(CCCCCCCCCCCC)c1nc(NCCN(C)C)nc(SCCCCCCCCC)n1` [S9^2N12 D1] the “Absolute DNA transfection efficiency” value was 0.3%.

`CCCCCCCCCCCCCCCCNc1nc(NCCN2CCCCC2)nc(SCCCCCCCCCCC)n1` [S11N16 D4] was tested, and the “Absolute DNA transfection efficiency” value was 4.4%.

For `CCCCCCCCCCCNc1nc(NCC2CCN(C)CC2)nc(SCCCCCCC)n1` [S7N11 D10], the “Absolute DNA transfection efficiency” value was 45.9%.

In the case of `CCCCCCCCCCCCSc1nc(NCCCCCCC)nc(NCCN2CCCCC2)n1` [S12N7 D4], the “Absolute DNA transfection efficiency” value is reported as 0.2%.
